Laboratory results from ChEMBL document CHEMBL1155903, “Cytotoxic calanquinone A from Calanthe arisanensis and its first total synthesis” (Bioorg Med Chem Lett, 2008).
Values after ≈ are worked out from the molar mass of the structure shown. Active and inactive are the calls of the source. No cut-off for these calls is given here.

Experiments:
Assay type in all cases: functional, cell-based
[1] = Cytotoxicity against human KBVIN cells
[2] = system: PC-3; assay: Cytotoxicity against human PC3 cells
[3] = system: A549; assay: Cytotoxicity against human A549 cells
[4] = system: DU-145; assay: Cytotoxicity against human DU145 cells
[5] = system: HCT-8; assay: Cytotoxicity against human HCT8 cells
[6] = system: KB; assay: Cytotoxicity against human KB cells
[7] = system: DU-145; assay: Cytotoxicity against human DU145 cells up to 20 ug/mL
[8] = system: MCF7; assay: Cytotoxicity against human MCF7 cells up to 20 ug/mL
[9] = system: A549; assay: Cytotoxicity against human A549 cells up to 20 ug/mL
[10] = system: HCT-8; assay: Cytotoxicity against human HCT8 cells up to 20 ug/mL
[11] = system: KB; assay: Cytotoxicity against human KB cells up to 20 ug/mL
[12] = system: KBVIN; assay: Cytotoxicity against human KBVIN cells up to 20 ug/mL
[13] = system: PC-3; assay: Cytotoxicity against human PC3 cells up to 20 ug/mL
[14] = system: MCF7; assay: Cytotoxicity against human MCF7 cells
[15] = Homo sapiens, KBVIN, read-out: EC50
[16] = Homo sapiens, PC-3, read-out: EC50
[17] = Homo sapiens, A549, read-out: EC50
[18] = Homo sapiens, DU-145, read-out: EC50
[19] = Homo sapiens, KB, read-out: EC50

SMILES | EC50 [5] [µg/mL] | Activity [7] | Activity [8] | Activity [9] | Activity [10] | Activity [11] | Activity [12] | Activity [13] | EC50 [6, 19] [µg/mL] | other results
COC1=CC(=O)c2ccc3cc(OC)c(OC)c(O)c3c2C1=O [CALANQUINONE A] | 0.29 (≈ 0.923 µM) | – | – | – | – | – | – | – | – | EC50 ([1]; kbvin): 0.24 µg/mL (≈ 0.764 µM); EC50 ([2]; pc-3): 0.75 µg/mL (≈ 2.39 µM); EC50 ([3]; a549): 0.31 µg/mL (≈ 0.986 µM); EC50 ([4]; du-145): 0.48 µg/mL (≈ 1.53 µM); EC50 ([6]; kb): 0.3 µg/mL (≈ 0.955 µM)
COc1cc2ccc3c(OC)cc(OC)c(OC)c3c2c(OC)c1OC | – | inactive | inactive | inactive | inactive | inactive | inactive | inactive | – | –
COC1=CC(=O)C(C=O)=C(c2c(C)cc(OC)c(OC)c2OC)C1=O | – | inactive | inactive | inactive | inactive | inactive | inactive | inactive | – | –
COC1=CC(=O)c2ccc3cc(OC)c(OC)c(OC)c3c2C1=O | 15.2 (≈ 46.4 µM) | – | – | – | – | – | – | – | 8.08 (≈ 24.6 µM) | EC50 [1, 15]: 9.14 µg/mL (≈ 27.8 µM); EC50 [2, 16]: 7.81 µg/mL (≈ 23.8 µM); EC50 [3, 17]: 7.06 µg/mL (≈ 21.5 µM); EC50 [4, 18]: 4.4 µg/mL (≈ 13.4 µM); EC50 [14]: 5.33 µg/mL (≈ 16.2 µM)
COc1cc(OC)c(OC)c(-c2c(C)cc(OC)c(OC)c2OC)c1C=O | – | inactive | inactive | inactive | inactive | inactive | inactive | inactive | – | –
COC(=O)C1=C(c2c(C)cc(OC)c(OC)c2OC)C(=O)C(OC)=CC1=O | 5.85 (≈ 15.5 µM) | – | – | – | – | – | – | – | 4.02 (≈ 10.7 µM) | EC50 [1, 15]: 5.48 µg/mL (≈ 14.6 µM); EC50 [2, 16]: 6.09 µg/mL (≈ 16.2 µM); EC50 [3, 17]: 6.12 µg/mL (≈ 16.3 µM); EC50 [4, 18]: 4.74 µg/mL (≈ 12.6 µM); EC50 [14]: 6.4 µg/mL (≈ 17 µM)
COC1=CC(=O)c2ccc3ccccc3c2C1=O [ANNOQUINONE A] | – | – | – | – | – | – | – | – | 1.6 (≈ 6.72 µM) | –
